Results reported in the SangsterLogP compilation.
Peptide text beside a SMILES is read from it. * marks the point of attachment. NHtBu = CC(C)(C)N*

Tests used:
[1] = method code SF-AS, from THAKUR, B.; Mehta, U.; TIPNIS, P. (1981). Ortho effect in partition coefficients of some o-benzyloxybenzamides. Indian J Pharm Sci, 43(6)224-226.
[2] = method code SF-RC, from DOI: 10.1016/s0969-8051(03)00050-7, PMID: 12900283; conditions: pH 7.4
[3] = method code SF-RC, from DOI: 10.1021/jm000079i, PMID: 10956218; conditions: pH 7.4
[4] = method code SF-RC, from DOI: 10.1016/s0969-8051(01)00264-5, PMID: 11711307; conditions: pH 7.4
[5] = not given; remark: listed apart in the source
[6] = not given; remark: listed apart in the source
[7] = not given; remark: listed apart in the source
[8] = not given; remark: listed apart in the source
[9] = method code SF-AS, from Falk, M.; Luecke, L. (1989). Transport of substances through lipid membranes. 11. Effect of esterification on the dissociation and permeation of orotic acid. Pharmazie, 44(9)647.; conditions: pH 1.2
[10] = method code SF, from DOI: 10.1584/jpestics.8.69
[11] = method code SF, from DOI: 10.3109/00498258709043934, PMID: 3564538
[12] = not given; remark: listed apart in the source
[13] = not given; remark: listed apart in the source
[14] = method code SF-HPLC, from DOI: 10.1897/08-203.1, PMID: 18702564
[15] = method code SF-HPLC, from DOI: 10.1016/j.ejps.2013.04.020, PMID: 23624327
[16] = method code SF, from Rodriguez, L.; Zecchi, V.; Tartarini, A. (1984). Partition rate of some nonsteroidal anti-inflammatory agents in a three-phase water/n-octanol/water system. Pharmaceutical Acta Helvetiae, 59(3)95-96.; conditions: pH 12.0
[17] = method code SF-HPLC, from DOI: 10.1002/jps.2600830120, PMID: 8138917; conditions: pH 7.4
[18] = method code SF-AS, from DOI: 10.1248/cpb.41.171; conditions: pH 7.0
[19] = method code SF-AS, from DOI: 10.1021/jm010817i, PMID: 11806714; conditions: pH 7.4
[20] = method code SF-RC, from DOI: 10.1016/j.nucmedbio.2015.07.007, PMID: 26330158; conditions: pH 7.4
[21] = method code SF, from You, R.; Wang, L.; Cong, L.; Wang, Q.; Cai, P.; Yuan, H. (2007). Physicochemical properties of oxymatrine-phospholipid complex. Pharmaceutical Journal of Chinese People's Liberation Army, …; conditions: pH 7.5
[22] = method code SF-HPLC, from DOI: 10.1016/j.ejpb.2006.11.002, PMID: 17182232; conditions: pH 7.4
[23] = method code SF-RC, from DOI: 10.1016/s0969-8051(03)00049-0, PMID: 12900282; conditions: pH 7.4
[24] = method code SF-GLC, from DOI: 10.1016/0048-3575(86)90042-8
[25] = not given; remark: listed apart in the source
[26] = pH 7.4
[27] = method code SF-RC, from DOI: 10.1002/jps.2600651126, PMID: 11336; conditions: pH 2.0
[28] = not given; remark: listed apart in the source
[29] = method code SF-HPLC, from DOI: 10.1023/a:1015823315983, PMID: 1475237; conditions: pH 1.0
[30] = method code SF-RC, from DOI: 10.1016/j.nucmedbio.2011.12.002, PMID: 22321533
[31] = not given; remark: listed apart in the source
[32] = not given; remark: listed apart in the source
[33] = method code SF, from DOI: 10.1016/0006-2952(79)90295-8, PMID: 36087
[34] = method code SF-AS, from DOI: 10.1081/jlc-100104900; conditions: pH 1.0
[35] = method code SF, from DOI: 10.1016/0378-5173(85)90102-4; conditions: pH 8.0
[36] = method code SF-HPLC, from DOI: 10.1021/js970291i, PMID: 9523983; conditions: pH 7.4
[37] = not given; remark: listed apart in the source
[38] = not given; remark: listed apart in the source
[39] = method code SF-RC, from DOI: 10.1016/0969-8051(94)00090-7, PMID: 7767321; conditions: pH 7.4
[40] = not given; remark: listed apart in the source
[41] = not given; remark: listed apart in the source
[42] = method code SF-HPLC, from DOI: 10.1002/jps.23140, PMID: 22499243; conditions: pH 7.4
[43] = pH 13.0
[44] = method code SF-RC, from DOI: 10.1023/a:1015892313856, PMID: 1495896; conditions: pH 7.2
[45] = method code SF-HPLC, from DOI: 10.1016/j.bmcl.2010.02.057, PMID: 20231095; conditions: pH 7.4

COc1ccc(COc2ccccc2C(N)=O)cc1
logP [1]: 1.63

COC(=O)C1(O)c2ccccc2-c2ccc(Cl)cc21 (stereo unspecified)
logP: 2.86

CN(C)c1ccc2c(c1)Cc1cc(I)ccc1-2
logD [2]: 2.47

CN(C)c1ccccc1Sc1ccc(C#N)cc1N
logD [3]: 2.71

CN(C)c1ccc(-c2nc3ccc(I)cc3o2)cc1
logD [4]: 2.09

O=C1NC(=O)C2(CCCCCCCCCCC2)C(=O)N1
logP [5]: 3.51

Oc1ccc2ccccc2c1/N=N/c1ccccc1
logP [6]: 5.86

Nc1cc2c3c(cccc3c1)-c1ccccc1-2
logP [7]: 3.14

COCCOc1ccccc1S(=O)(=O)NC(=O)Nc1nc(OC)nc(OC)n1
logP [8]: 1.71

CCCCCCCCCCOC(=O)c1cc(=O)[nH]c(=O)[nH]1
logD [9]: 2.85

CC(C(c1ccccc1)c1ccccc1)[N+](=O)[O-] (stereo unspecified)
logP [10]: 3.91

CCC(C)OC(=O)C(C(=O)OC(C)CC)=C1SC=CS1 (stereo unspecified)
logP [11]: 4.89

COc1ccc2cc(CCC(C)=O)ccc2c1
logP [12]: 3.45

c1cc(-c2cnc3c(-c4ccncc4)cnn3c2)ccn1
logP [13]: 2.5

CC(C)(c1ccc(O)cc1)c1ccc(O)cc1
logP [14]: 3.41

O=C(/C=C/c1ccc(O)cc1)c1ccc(O)cc1O
logP [15]: 1.91

CCc1c(OC)cc(Cc2cnc(N)nc2N)cc1OC
logD [16]: 2.72

CC(C(N)=O)c1ccc(-c2ccccc2)c(F)c1 (stereo unspecified)
logD [17]: 3.2

Cc1cc(-n2[nH]c3c(cnc4ccccc43)c2=O)cs1
logD [18]: 1.58

CCCC(=O)NCCC(=O)NCc1c(O)c(=O)cc(C)n1C
logD [19]: -0.7

O=C1Nc2c(Cl)ccc(OCCF)c2C2(CCCCC2)N1
logD [20]: 2.9

O=C1CCC[C@@H]2[C@H]3CCC[N@+]4([O-])CCC[C@@H](CN12)[C@@H]34
logD [21]: -0.86

CC(C)OC(=O)C(NC(=O)c1cccnc1)n1cc(F)c(=O)[nH]c1=O (stereo unspecified)
logD [22]: 0.62

CNc1ccc(/C=C/c2ccc(O)cc2)cc1
logD [23]: 2.36

ClC1(Cl)CC1(c1ccccc1)c1ccccc1
logP [24]: 4.88

CC[C@@H](c1cccc(O)c1)[C@@H](C)CN(C)C
logP [25]: 2.77

CC(=O)OCC(CCn1cnc2cnc(N)nc21)COC(C)=O
logD [26]: 0.32

CSc1ccc2oc3ccc(C(=O)O)cc3c(=O)c2c1
logD [27]: 3.4

O=C1CN=C(c2cccc(Br)c2)c2cc(Br)ccc2N1
logP [28]: 3.88

C[C@H](CS)C(=O)N1C[C@@H](Sc2ccccc2)C[C@H]1C(=O)O (relative stereo)
logD [29]: 2.16

Cc1cn(C2CC(O)C(CO)S2)c(=O)n(Cc2cn(CCF)nn2)c1=O (stereo unspecified)
logP [30]: -0.86

Cn1ccc2cc(-c3nc4ccc(F)nc4o3)ccc21
logP [31]: 3.42

CC(C)NCC(O)c1ccc2ccccc2c1 (stereo unspecified)
logP [32]: 3

CC(C)NCC(O)COc1cccc(CC(N)=O)c1 (stereo unspecified)
logP [33]: 0.22

CC(C(=O)O)c1cccc(Oc2ccccc2)c1 (stereo unspecified)
logD [34]: 3.45

NC(Cc1ccccc1)C(=O)OCn1ncc2c(=O)[nH]cnc21 (racemic)
logD [35]: 0.4

Cc1ccnc2c1NC(=O)c1cccnc1N2C1CC1
logD [36]: 1.81

O=CC1=CC=C2C(C(=O)O)CCN2c2cc(Br)ccc21 (stereo unspecified)
logP [37]: 3.6

OCCN1CCC(COc2ccc(I)cc2)CC1
logP [38]: 4

CC(C)(C(=O)c1ccccc1I)c1cccnc1
logD [39]: 2.19

CN(C)Cc1cc(I)ccc1Sc1ccc(Cl)cc1N
logP [40]: 3.31

Cc1cc2cc[nH]c2c(C(=O)Nc2ncccc2C)n1
logP [41]: 5.3

CCCCCCOP1(=O)COC(Cn2ccc(N)nc2=O)CO1 (stereo unspecified)
logD [42]: 2.84

C=CCOc1ccccc1OCC(O)CNC(C)C (stereo unspecified)
logD [43]: 2.25

CC(=O)NC(C)C(=O)N1CCCC1C(=O)NC(C)(C)C (stereo not drawn) (Ac-Ala-Pro-NHtBu; configuration not given here)
logD [44]: -0.39

CCCC(=O)OC(C)OC(=O)c1sc2cc(O)c(O)cc2c1Cl (stereo unspecified)
logD [45]: 2.16
